Data as given in patent publication EP4810508A1, “ARABINOSE DERIVATIVE COMPOUND, AND COMPOSITION COMPRISING SAME FOR PREVENTING OR TREATING DEGENERATIVE BRAIN DISEASES” (Digmbio. Inc., priority 2023, dated 2025).
Where two headings read alike, the source gives them in different places.

Tested on: HRE/Luc/HEK293 cells
Assay: HRE (Hypoxia Response Element) luciferase assay
Assay type: cell-based, human
Details: for fold induction at 10 µM / fold induction at 100 µM: Homo sapiens; for HRE expression: low concentration of 1 µM; for HRE assay: increase in HRE expression levels by the test substance relative to the vehicle in HRE/Luc/HEK293 cells
Method: • (a) HRE assay: Confirmation of increased in HRE expression levels by the test substance relative to the vehicle in HRE/Luc/HEK293 cells • * Less than a twofold increase at 100 µM, • ** More than a twofold increase at 100 µM, • *** More than a twofold increase at 10 µM, • **** More than a twofold increase at 1 µM, • Not performed.
It has been reported that in the brains of AD patients, blood supply is mostly insufficient, resulting in oxygen levels being up to 50% lower than those of normal individuals, leading to increased oxidative stress (ROS) and neuroinflammation. It has also been studied that when the HIF-1α (hypoxia inducible factor-1) factor binds to the HRE (hypoxia response element), it increases VEGF (vascular endothelial growth factor), which promotes the formation of new blood vessels, thereby increasing oxygen levels in the brain and helping to inhibit nerve cell damage.
A reporter gene containing luciferase, capable of verifying the level of HRE expression, was inserted into HEK-293 human embryonic kidney cells, and HRE/Luc/HEK293 cells were constructed by inserting a plasmid (HRE/Luc) with luciferase attached downstream of the HRE promoter that binds to HIF-1α using lipofectamine (Invitrogen).
To perform HRE luciferase analysis, HRE/Luc/HEK293 cells were seeded in 96-well culture plates at a cell density of 4 x 10^4 per well in minimal essential medium (MEM) containing 10% fetal bovine serum. After one day, the cell medium was removed and replaced with medium mixed with various concentrations of example compounds. Six hours after compound pretreatment, HRE/Luc/HEK293 cells were cultured under hypoxic conditions (O2 0.1%) for 18 hours. Subsequently, the cells were washed with phosphate buffer, lysed with lysis buffer, and then the luciferase reagent (Promega) for luciferase analysis was added. Afterward, changes in HRE expression levels associated with HIF-1 signaling were evaluated by measuring luminescence using an Infinite200 (Tecan).

[1] = HEK293, 18 h, Table 2 (Examples 75-109, 114), read-out: HRE-inceasing 10uM
[2] = HEK293, 18 h, Table 2 (Examples 75-109, 114), read-out: HRE-inceasing 100uM
[3] = HEK293, fold increase of HRE expression, hypoxic conditions (O2 0.1%) 18 hours, Table 2, read-out: HRE-increasing 10uM
[4] = HEK293, fold increase of HRE expression, hypoxic conditions (O2 0.1%) 18 hours, Table 2, read-out: HRE-increasing 100uM
[5] = HEK293, 18 h, Table 2 (Examples 37-74, 52), read-out: HKt-increasing 10uM
[6] = HEK293, 18 h, Table 2 (Examples 37-74, 52), read-out: HKt-increasing 100uM

Row | Structure (SMILES) | fold induction at 10 µM [1] | fold induction at 100 µM [2] | fold induction at 10 µM [5] | fold induction at 100 µM [6] | also measured
1 | Cc1ccc2oc(-c3ccc(O[C@@H]4OC[C@H](O)[C@H](O)[C@H]4O)cc3)nc2c1 [Example 108, (2S,3R,4S,5S)-2-(4-(5-methylbenzo[d]oxazol-2-yl)phenoxy)tetrahydro-2H-pyran-3,4,5-triol] | 3.6 | 1.6 | – | – | HRE expression: more than threefold
2 | CCc1ccc2c(-c3ccc(O[C@@H]4OC[C@H](O)[C@H](O)[C@H]4O)cc3)coc2c1 [Example 96, (2S,3R,4S,5S)-2-(4-(6-ethylbenzofuran-3-yl)phenoxy)tetrahydro-2H-pyran-3,4,5-triol] | 2.6 | 2.9 | – | – | –
3 | CSc1ccc(Cc2ccc(O[C@H]3OC[C@H](O)[C@H](O)[C@H]3O)cc2)cc1 [Example 11, (2R,3R,4S,5S)-2-(4-(4-(methylthio)benzyl)phenoxy)tetrahydro-2H-pyran-3,4,5-triol] | – | – | – | – | fold induction at 10 µM [3]: 2.4; fold induction at 100 µM [4]: 2.4; HRE assay: •••
4 | COc1ccc(Cc2ccc(O[C@H]3OC[C@H](O)[C@H](O)[C@H]3OC(=O)CCCCCCCCCN)cc2)cc1 [Example 79, (2R,3R,4S,5S)-4,5-dihydroxy-2-(4-(4-methoxybenzyl)phenoxy)tetrahydro-2H-pyran-3-yl 10-aminodecanoate] | 1 | 1.7 | – | – | –
5 | N#Cc1ccc(C(=O)c2ccc(O[C@@H]3OC[C@H](O)[C@H](O)[C@H]3O)cc2)cc1 [Example 72, 4-(4-(((2S,3R,4S,5S)-3,4,5-trihydroxytetrahydro-2H-pyran-2-yl)oxy)benzoyl)benzonitrile] | – | – | 1 | 1.3 | –
6 | CCOc1ccc(Cc2ccc(O[C@H]3OC[C@H](O)[C@H](O)[C@H]3O)cc2)cc1 [Example 39, (2R,3R,4S,5S)-2-(4-(4-ethoxybenzyl)phenoxy) tetrahydro-2H-pyran-3,4,5-triol] | – | – | 1.1 | 1.3 | –
7 | Cc1ccc2oc(-c3ccc(O[C@H]4OC[C@H](O)[C@H](O)[C@H]4O)cc3)nc2c1 [Example 109, (2R,3R,4S,5S)-2-(4-(5-methylbenzo[d]oxazol-2-yl)phenoxy)tetrahydro-2H-pyran-3,4,5-triol] | 3.2 | 4.4 | – | – | HRE expression: more than threefold
8 | CC(C)c1ccc(Oc2ccc(O[C@H]3OC[C@H](O)[C@H](O)[C@H]3F)cc2)cc1 [Example 63, (3S,4S,5R,6R)-5-fluoro-6-(4-(4-isopropylphenoxy)phenoxy)tetrahydro-2H-pyran-3,4-diol] | – | – | 2.4 | 2.3 | –
9 | CC(C)c1ccc(Cc2ccc(O[C@H]3OC[C@H](O)[C@H](O)[C@H]3O)cc2Cl)cc1 [Example 40, (2R,3R,4S,5S)-2-(3-chloro-4-(4-isopropylbenzyl)phenoxy)tetrahydro-2H-pyran-3,4,5-triol] | – | – | 2.6 | 3.1 | –
10 | CC(C)c1ccc(Oc2ccc(O[C@H]3OC[C@H](O)[C@H](O)[C@H]3O)c(F)c2)cc1 [Example 68, (2R,3R,4S,5S)-2-(2-fluoro-4-(4-isopropylphenoxy)phenoxy)tetrahydro-2H-pyran-3,4,5-triol] | – | – | 4.3 | 4.4 | HRE expression: more than threefold
11 | CC(C)c1ccc(Oc2ccc(O[C@H]3OC[C@@H](F)[C@H](O)[C@H]3O)cc2)cc1 [Example 64, (2R,3R,4R,5R)-5-fluoro-2-(4-(4-isopropylphenoxy)phenoxy)tetrahydro-2H-pyran-3,4-diol] | – | – | 2.4 | 2.3 | –
12 | CC(C)c1ccc(Oc2ccc(O[C@H]3OC[C@H](O)[C@H](O)[C@H]3O)c(Cl)c2)cc1 [Example 57, (2R,3R,4S,5S)-2-(2-chloro-4-(4-isopropylphenoxy)phenoxy)tetrahydro-2H-pyran-3,4,5-triol] | – | – | 3.2 | 2.8 | HRE expression: more than threefold
13 | COc1ccc2oc(-c3ccc(O[C@@H]4OC[C@H](O)[C@H](O)[C@H]4O)c(Cl)c3)nc2c1 [Example 102, (2S,3R,4S,5S)-2-(2-chloro-4-(5-methoxybenzo[d]oxazol-2-yl)phenoxy)tetrahydro-2H-pyran-3,4,5-triol] | 3.1 | 1.8 | – | – | HRE expression: more than threefold
14 | CC(C)c1ccc(-c2ccc(O[C@H]3OC[C@H](O)[C@H](O)[C@H]3O)cc2)cc1 [Example 86, (2R,3R,4S,5S)-2-((4'-isopropyl-[1,1'-biphenyl]-4-yl)oxy) tetrahydro-2 H-pyran-3,4,5-triol] | 1.9 | 3.2 | – | – | –
15 | COc1ccc2oc(-c3ccc(O[C@H]4OC[C@H](O)[C@H](O)[C@H]4O)c(Cl)c3)nc2c1 [Example 103, (2R,3R,4S,5S)-2-(2-chloro-4-(5-methoxybenzo[d]oxazol-2-yl)phenoxy)tetrahydro-2H-pyran-3,4,5-triol] | 2.6 | 2.9 | – | – | –
16 | COc1ccc2c(ccn2-c2ccc(O[C@H]3OC[C@H](O)[C@H](O)[C@H]3O)cc2)c1 [Example 82, (2R,3R,4S,5S)-2-(4-(5-methoxy-1H-indol-1-yl)phenoxy)tetrahydro-2H-pyran-3,4,5-triol] | 1.4 | 2.3 | – | – | –
17 | COc1ccc2c(ccn2-c2ccc(O[C@@H]3OC[C@H](O)[C@H](O)[C@H]3O)cc2)c1 [Example 83, (2S,3R,4S,5S)-2-(4-(5-methoxy-1H-indol-1-yl)phenoxy)tetrahydro-2H-pyran-3,4,5-triol] | 2.2 | 3.3 | – | – | –
18 | O=C(c1ccc(O[C@H]2OC[C@H](O)[C@H](O)[C@H]2O)cc1)c1ccco1 [Example 115, furan-2-yl(4-(((2R,3R,4S,5S)-3,4,5-trihydroxytetrahydro-2H-pyran-2-yl)oxy)phenyl)methanone] | – | – | – | – | fold induction at 10 µM [3]: 1; fold induction at 100 µM [4]: 1.4
19 | COc1ccc2oc(-c3ccc(O[C@@H]4OC[C@H](O)[C@H](O)[C@H]4O)cc3)nc2c1 [Example 92, (2S,3R,4S,5S)-2-(4-(5-methoxybenzo[d]oxazol-2-yl)phenoxy)tetrahydro-2H-pyran-3,4,5-triol] | 3 | 1.6 | – | – | HRE expression: more than threefold
20 | Cc1ccc2oc(-c3ccc(O[C@@H]4OC[C@H](O)[C@H](O)[C@H]4O)c(Cl)c3)nc2c1 [Example 100, (2S,3R,4S,5S)-2-(2-chloro-4-(5-methylbenzo[d]oxazol-2-yl)phenoxy) tetrahydro-2H-pyran-3,4,5-triol] | 2.7 | 2.4 | – | – | –
21 | COc1ccc(Cc2ccc(O[C@H]3OC[C@H](O)[C@H](O)[C@H]3O)c(Cl)c2)cc1 [Example 51, (2R,3R,4S,5S)-2-(2-chloro-4-(4-methoxybenzyl)phenoxy)tetrahydro-2H-pyran-3,4,5-triol] | – | – | 1.3 | 2.9 | –
22 | CC(C)[C@H]1CC[C@H](Cc2ccc(O[C@H]3OC[C@H](O)[C@H](O)[C@H]3O)cc2)CC1 [Example 74, (2R,3R,4S,5S)-2-(4-(((1R,4R)-4-isopropylcyclohexyl)methyl)phenoxy)tetrahydro-2H-pyran-3,4,5-triol] | – | – | 1.9 | 3 | –
23 | CO[C@H]1CO[C@H](Oc2ccc(Oc3ccc(C(C)C)cc3)cc2)[C@H](O)[C@H]1O [Example 61, (2R,3R,4R,5S)-2-(4-(4-isopropylphenoxy)phenoxy)-5-methoxytetrahydro-2H-pyran-3,4-diol] | – | – | 1.1 | 1.3 | –
24 | CN(C)c1ccc(Cc2ccc(O[C@@H]3OC[C@H](O)[C@H](O)[C@H]3O)cc2)cc1 [Example 12, (2S,3R,4S,5S)-2-(4-(4-(dimethylamino)benzyl)phenoxy) tetrahydro-2H-pyran 3,4,5-triol] | – | – | – | – | fold induction at 10 µM [3]: 1.2; fold induction at 100 µM [4]: 1.6; HRE assay: •
25 | COc1cc(Cc2ccc(O[C@H]3OC[C@H](O)[C@H](O)[C@H]3O)cc2)cc(OC)c1OC [Example 18, (2R,3R,4S,5S)-2-(4-(3,4,5-trimethoxybenzyl)phenoxy) tetrahydro-2H-pyran-3,4,5-triol] | – | – | – | – | fold induction at 10 µM [3]: 1.2; fold induction at 100 µM [4]: 1.3
26 | CC(C)c1ccc(Oc2cccc(O[C@H]3OC[C@H](O)[C@H](O)[C@H]3O)c2)cc1 [Example 54, (2R,3R,4S,5S)-2-(3-(4-isopropylphenoxy)phenoxy)tetrahydro-2H-pyran-3,4,5-triol] | – | – | 1 | 1.5 | –
